System: 282377-053-R-J1-PDC complex spheroid viability
Test: Anticancer human tumor 282377-053-R-J1-PDC patient-derived colon adenocarcinoma cell line growth inhibition [POLQ]
Details: for IC50: curve of first compound; for viability, T/C: stronger effect = lower value
Procedure: Multicellular complex tumor spheroid response to Polymerase (POL) inhibitors (novobiocin, ART-558, RP6685) in combination with a variety of drugs and investigational agents in selected tumor cell lines
The POL inhibitors (novobiocin, ART-558, and RP6685) were evaluated both individually and in combination with standard of care and investigational anticancer small molecules within a complex spheroid model of solid tumors. . Complex spheroids include a stromal component modeled by human endothelial cells (HUVEC) and fibroblasts modeled by human mesenchymal stem cells (MSCs). The concentration ranges selected for each drug and investigational agent were based upon clinically achievable concentrations if the clinical Cmax of the agent was known.
Compounds. The drugs and investigational agents: novobiocin (NSC847541), ART-558 (NSC835418), RP-6685 (NSC848927), peposertib (NSC802822), ceralasertib (NSC780249), elimusertib (NSC800525), camonsertib (NSC841442), AZD-1390 (NSC803789), olaparib (NSC753686), talazoparib (NSC767125), rucaparib (NSC756644), sotorasib (NSC818433), MRTX-1133 (NSC836407), SN-38 (NSC673596), topotecan (NSC609699), epotoside (NSC141540), doxorubicin (NSC123127), gemcitabine (NSC613327), 5-fluorouracil (NSC19893), paclitaxel (NSC125973), vemurafenib (NSC761431), MSA-2 (NSC828583), SN-011 (NSC837082), adavosertib (NSC754352), prexasertib (NSC758257), carboplatin (NSC241240) and oxaliplatin (NSC266046), were obtained from the National Cancer Institute (NCI) Developmental Therapeutics Program Chemical Repository (21). The FDA-approved anticancer drug set is available from the Developmental Therapeutics Program at https://dtp.cancer.gov/organization/dscb/obtaining/. […] The stock solutions were prepared in dimethyl sulfoxide (DMSO, Sigma-Aldrich, St. Louis, MO, cat. D2650), except for the platinum compounds which were prepared in saline (Quality Biological, Gaithersburg, MD, cat. 114-055-101), at 800-fold the tested concentration and stored at -70 degrees C prior to their use. All drugs and investigational agents were tested over a range starting from a high concentration at or near the clinical Cmax and decreasing in half-log increments. If the clinical Cmax for an agent had not been determined, the highest concentration tested was 10 microM, except for SN-38, which was tested at a high concentration of 1 microM.
Cell Culture. All cells were maintained in an incubator at 37 degrees C and 5% CO2 with 95% humidity. The PDC lines were cultured according to standard operating procedures established by the NCI PDMR (https://pdmr.cancer.gov). Table 3 of the manuscript, lists the cell lines along with the number of the three cell types plated to form the mct-spheroids and media for tumor cell growth. After thawing, all PDC lines, except 997537-175-T-J1-PDC and 415267-285-R-J2-PDC, were cultured in Matrigel-coated flasks prepared with a working solution of 1X Ham's F-12 nutrient mix, without supplementation (Thermo Fisher Scientific, cat. 11765054), 100 U/mL penicillin-streptomycin (Thermo Fisher Scientific, cat. 15140122), and 2.5% Matrigel (Corning Inc., Corning, NY, cat. 354248) for the first three passages. The two PDC lines 997537-175-T-J1-PDC and 415267-285-R-J2-PDC were cultured on uncoated flasks. The 857933-349-R-J2-PDC line was cultured in 6C/Colon 1B media containing advanced DMEM/F-12 (Thermo Fisher Scientific, cat. 12634028), 10 mM HEPES (Thermo Fisher Scientific, cat. 15630080), 1X GlutaMAX supplement (Thermo Fisher Scientific, cat. 35050061), 0.1 mg/mL primocin (InvivoGen, San Diego, CA, cat. ant-pm-2), 10% defined fetal bovine serum, heat inactivated (HyClone Laboratories Inc., Logan, UT, cat. SH30070.03HI), 50% L-WRN conditioned media (ATCC, cat. CRL-3276), 1.25 mM N-Acetyl-L-cysteine (Sigma-Aldrich, cat. A9165), 10 mM nicotinamide (Sigma-Aldrich, cat. N0636), 1X B-27 supplement (Thermo Fisher Scientific, cat. 17504044), 1X N-2 supplement (Thermo Fisher Scientific, cat. […]
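Also: spheroids exposed to compounds for seven days.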
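For viability, T/C in this document: 100% = DMSO vehicle control viability.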

Q: `CCc1cc2c(N3CCc4c(cc(Cn5ccnc5)cc4-c4cn(C)nc4C(F)(F)F)C3=O)cc(C)nc2c(OC)n1` + Nc1ccc(C#CCN(C(=O)Cc2ncc(C(F)(F)F)cc2C(F)(F)F)c2ccc(F)cc2)nn1 was tested. Which IC50 (second compound 0.0316 µM) did it give?
A: The IC50 was > 10 µM.

Q: What about the IC50 (second compound 0.1 µM) of the same compound?
A: The IC50 was > 10 µM.

Q: What about the IC50 (second compound 0.316 µM) of the same compound?
A: Its IC50 is > 10 µM.

Q: And the IC50 (second compound 1 µM)?
A: The IC50 was > 10 µM.

Q: And the IC50 (second compound 3.16 µM)?
A: Its IC50 is > 10 µM.

Q: What about the IC50 (second compound 10 µM) of the same compound?
A: Its IC50 is > 10 µM.

Q: And the viability, T/C (second compound 0.0316 µM, first compound 0.0316 µM)?
A: The viability, T/C was 83%.

Q: What about the viability, T/C (second compound 0.0316 µM, first compound 0.1 µM) of the same compound?
A: Its viability, T/C is 81.5%.

Q: And the viability, T/C (second compound 0.0316 µM, first compound 0.316 µM)?
A: The viability, T/C was 89%.

Q: What about the viability, T/C (second compound 0.0316 µM, first compound 1 µM) of the same compound?
A: Its viability, T/C is 98.2%.

Q: What about the viability, T/C (second compound 0.0316 µM, first compound 3.16 µM) of the same compound?
A: Its viability, T/C is 120%.

Q: What about the viability, T/C (second compound 0.0316 µM, first compound 10 µM) of the same compound?
A: The viability, T/C was 99.3%.

Q: And the viability, T/C (second compound 0.1 µM, first compound 0.0316 µM)?
A: Its viability, T/C is 84.8%.

Q: And the viability, T/C (second compound 0.1 µM, first compound 0.1 µM)?
A: The viability, T/C was 82.8%.

Q: And the viability, T/C (second compound 0.1 µM, first compound 0.316 µM)?
A: Its viability, T/C is 82.3%.

Q: And the viability, T/C (second compound 0.1 µM, first compound 1 µM)?
A: Its viability, T/C is 75.1%.

Q: What about the viability, T/C (second compound 0.1 µM, first compound 3.16 µM) of the same compound?
A: Its viability, T/C is 93.4%.

Q: What about the viability, T/C (second compound 0.1 µM, first compound 10 µM) of the same compound?
A: The viability, T/C was 115%.

Q: What about the viability, T/C (second compound 0.316 µM, first compound 0.0316 µM) of the same compound?
A: The viability, T/C was 96.6%.

Q: What about the viability, T/C (second compound 0.316 µM, first compound 0.1 µM) of the same compound?
A: Its viability, T/C is 86.2%.

Q: And the viability, T/C (second compound 0.316 µM, first compound 0.316 µM)?
A: The viability, T/C was 89.4%.

Q: What about the viability, T/C (second compound 0.316 µM, first compound 1 µM) of the same compound?
A: Its viability, T/C is 82.3%.

Q: And the viability, T/C (second compound 0.316 µM, first compound 3.16 µM)?
A: Its viability, T/C is 95.9%.

Q: And the viability, T/C (second compound 0.316 µM, first compound 10 µM)?
A: The viability, T/C was 96.1%.

Q: And the viability, T/C (second compound 1 µM, first compound 0.0316 µM)?
A: The viability, T/C was 82.1%.

Q: And the viability, T/C (second compound 1 µM, first compound 0.1 µM)?
A: The viability, T/C was 88.7%.

Q: What about the viability, T/C (second compound 1 µM, first compound 0.316 µM) of the same compound?
A: The viability, T/C was 79.8%.

Q: And the viability, T/C (second compound 1 µM, first compound 1 µM)?
A: The viability, T/C was 96%.

Q: And the viability, T/C (second compound 1 µM, first compound 3.16 µM)?
A: Its viability, T/C is 96.7%.

Q: And the viability, T/C (second compound 1 µM, first compound 10 µM)?
A: Its viability, T/C is 107%.

Q: And the viability, T/C (second compound 3.16 µM, first compound 0.0316 µM)?
A: Its viability, T/C is 95.6%.

Q: And the viability, T/C (second compound 3.16 µM, first compound 0.1 µM)?
A: The viability, T/C was 91.3%.

Q: What about the viability, T/C (second compound 3.16 µM, first compound 0.316 µM) of the same compound?
A: The viability, T/C was 85%.

Q: What about the viability, T/C (second compound 3.16 µM, first compound 1 µM) of the same compound?
A: Its viability, T/C is 106%.

Q: What about the viability, T/C (second compound 3.16 µM, first compound 3.16 µM) of the same compound?
A: Its viability, T/C is 90.5%.

Q: What about the viability, T/C (second compound 3.16 µM, first compound 10 µM) of the same compound?
A: The viability, T/C was 108%.

Q: What about the viability, T/C (second compound 10 µM, first compound 0.0316 µM) of the same compound?
A: Its viability, T/C is 108%.

Q: What about the viability, T/C (second compound 10 µM, first compound 0.1 µM) of the same compound?
A: Its viability, T/C is 102%.

Q: And the viability, T/C (second compound 10 µM, first compound 0.316 µM)?
A: The viability, T/C was 125%.

Q: What about the viability, T/C (second compound 10 µM, first compound 1 µM) of the same compound?
A: Its viability, T/C is 107%.

Q: What about the viability, T/C (second compound 10 µM, first compound 3.16 µM) of the same compound?
A: Its viability, T/C is 113%.

Q: And the viability, T/C (second compound 10 µM, first compound 10 µM)?
A: The viability, T/C was 115%.

Source: PubChem BioAssay AID1963852 (Molecular Pharmacology Branch, DTP, NCI, 2024)
